This is an account of results in publication PMC5853465, “Use of D-glucose–fenpiclonil conjugate as a potent and specific inhibitor of sucrose carriers” (Journal of Experimental Botany, 2017).

In the assay the target is T1, AtSUC2 (Arabidopsis thaliana, UniProt Q39231).
T1 construct: gene SUC2; full coding region in plasmid pDR-R1-R2-HIS3 (derived from pDR 192), expressed in Saccharomyces cerevisiae RS453 cells
T1 sequence (Q39231 1-512): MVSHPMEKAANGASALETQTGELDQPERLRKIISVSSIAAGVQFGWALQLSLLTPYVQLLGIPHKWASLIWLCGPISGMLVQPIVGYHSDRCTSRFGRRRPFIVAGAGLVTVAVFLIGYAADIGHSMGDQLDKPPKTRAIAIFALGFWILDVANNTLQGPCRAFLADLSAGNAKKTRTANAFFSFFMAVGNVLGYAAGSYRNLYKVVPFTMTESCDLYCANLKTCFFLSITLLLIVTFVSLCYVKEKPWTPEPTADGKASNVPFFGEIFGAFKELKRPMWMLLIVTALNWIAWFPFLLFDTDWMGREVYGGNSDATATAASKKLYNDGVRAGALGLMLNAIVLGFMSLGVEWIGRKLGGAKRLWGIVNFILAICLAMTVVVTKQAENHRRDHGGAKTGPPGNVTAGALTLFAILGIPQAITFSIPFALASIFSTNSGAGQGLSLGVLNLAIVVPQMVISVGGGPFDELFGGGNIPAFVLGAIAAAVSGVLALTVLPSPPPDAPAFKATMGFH
In words: […]sucrose uptake into AtSUC2-transformed yeast, empty vector subtracted. The format is cell-based. The settings on record: read-out: Inibition^b (%).

For `CC(C(=O)NCc1cn([C@@H]2O[C@H](CO)[C@@H](O)[C@H](O)[C@H]2O)nn1)n1cc(C#N)c(-c2cccc(Cl)c2Cl)c1` (stereo partly drawn) [D-GFC, D-glucose–fenpiclonil conjugate], the inhibition at 500 µM amounted to 81.5%.
